Measurements from EP0326134A1, “4-Amino-2,3-disubstituted-6,7-dihydro-5H-1-pyridine derivatives, process for their preparation and medicaments containing them” (NAUCHNO-ISSLEDOVATELSKY INSTITUT TEKHNOLOGII I BEZOPASNOSTI …, priority 1988, dated 1989).
Counter-ions that a name gives are not always drawn.

How the values were obtained:
Uterus der Ratte = experiment: Contractile activity of smooth muscle: rat uterus; conditions: n = 9; for Acetylcholin 1.10^-6 (Mol): Dauer, Min.: Uterus der Ratte (as head prints); for Serotonin 1.10^-6 (Mol): Dauer, Min.: Uterus der Ratte
Procedure, shortened: (§1)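 Isolated rat uterus and vas deferens; effects of compounds on smooth-muscle contractile activity and on responses to acetylcholine, serotonin, adrenaline and KCl as agonists. Contraction amplitude and duration recorded mechanically.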

M-cholinrezeptoren = experiment: Radioligand displacement of 3H-Propyl-2-aminobenzylat in brain; type: binding, Kaninchens
Description: (§2) Dies beweisen spezielle Radioligandenuntersuchungen an einzelnen erfindungsgemäßen Verbindungen (s. Tabelle 6).

[1] = test system: K -Durchlässigkeit der Membrane des Ranvier-Schnürringes; experiment: K+ permeability of the node of Ranvier membrane, voltage clamp; design: species or system Frosches; conditions: node of Ranvier, frog sciatic nerve fibres, voltage clamp; concentration giving 50 % block of ion permeability; read-out: Blockierung der K^+-Durchlässigkeit der Membrane Ic50 (Mol)
Procedure, shortened: (§3)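 Frog sciatic nerve fibres studied at the node of Ranvier under voltage clamp, measuring membrane Na+ and K+ permeability.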

[2] = test system: durch Skopolamin hervorgerufene Amnesie; experiment: Dark avoidance assay (passive avoidance), scopolamine-induced amnesia; type: in vivo, Mäusen; conditions: mice, compound s.c. 5 min before learning, Skopolamin i.p. 30 min before
[3] = test system: Na -Durchlässigkeit der Membrane des Ranvier-Schnürringes; experiment: Na+ permeability of the node of Ranvier membrane, voltage clamp; design: species or system Frosches; conditions: node of Ranvier, frog sciatic nerve fibres, voltage clamp; concentration giving 50 % block of ion permeability; read-out: Blockierung der Na^+-Durchlässigkeit der Membrane Ic50 (Mol)
Procedure, shortened: as §3

Samenleiter der Ratte = experiment: Contractile activity of smooth muscle: rat vas deferens; conditions: Samenleiter der Ratte, n = 9
Procedure, shortened: as §1

[4] = Acute toxicity, single intraperitoneal injection, probit analysis (LD50); type: in vivo, Mäusen; conditions: mouse, in vivo, ip, mice, i.p., read-out: LD50
Description: Ihre akute Toxizität wurde an Mäusen (einmalige intraperitoneale Injektion) nach der Methode der Probit-Analyse nach Zichtfield, Wilcoxon, t949 untersucht. In Tabelle 2 sind die Parameter der akuten Toxizität (LDso) angegeben, die eine mäßige Toxizität der erfindungsgemäßen Verbindungen belegen.

α2-Adrenorezeptoren = experiment: Radioligand displacement of 3H-clonidine in cerebral cortex; type: binding, Kaninchens
Description: as §2

[5] = test system: Nerven-Muskel-Präparat von Mäusen (n.peroneus-m.extensor digitorum longus); experiment: Neuromuscular transmission in isolated nerve-muscle preparation (EPP, minEPP)
Procedure, shortened: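 Mouse peroneal nerve–extensor digitorum longus preparation, isolated and perfused with O2/CO2-gassed Lilly solution. EPPs and spontaneous minEPPs were recorded by magnetograph, then analysed by computer for frequency, amplitude and duration.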

[6] = Side effects and CNS/behaviour: tremor (TD50), sedative and m-cholinomimetic effects; type: in vivo; conditions: in vivo, toxic dose causing tremor in 50 % of the animals
Description: Von Interesse ist der Einfluß der erfindungsgemäßen Verbindungen auf das ZNS und das Verhalten der Tiere.

M2-Cholinrezeptoren = molecular target: T1, M2-Cholinrezeptoren (Oryctolagus cuniculus, UniProt G1TBX1); experiment: Radioligand displacement of 3H-Chinuklidin in heart; type: binding, Kaninchen
T1 construct: im Kaninchen-herzen (M2-Cholinre-zeptoren); from tissue; host or cells: rabbit heart
T1 sequence (G1TBX1 1-520): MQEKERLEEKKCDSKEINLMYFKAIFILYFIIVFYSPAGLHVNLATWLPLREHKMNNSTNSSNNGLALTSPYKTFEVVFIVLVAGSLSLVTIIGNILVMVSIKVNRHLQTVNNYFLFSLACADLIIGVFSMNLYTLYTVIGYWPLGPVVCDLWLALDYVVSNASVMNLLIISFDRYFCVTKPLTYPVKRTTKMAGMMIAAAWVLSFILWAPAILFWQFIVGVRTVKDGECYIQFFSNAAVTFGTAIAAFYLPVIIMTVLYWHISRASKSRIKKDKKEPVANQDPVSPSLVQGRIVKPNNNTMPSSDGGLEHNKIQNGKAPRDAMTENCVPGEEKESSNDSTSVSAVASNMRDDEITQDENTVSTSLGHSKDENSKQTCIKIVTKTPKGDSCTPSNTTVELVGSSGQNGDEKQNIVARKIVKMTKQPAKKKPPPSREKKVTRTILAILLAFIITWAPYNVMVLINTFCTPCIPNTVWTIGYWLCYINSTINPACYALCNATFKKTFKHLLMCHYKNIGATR
Description: as §2

[7] = Konzentration 1.10^-5 Mol, 10 µM
[8] = Konzentration 1.10^-6 Mol, 1 µM

SMILES: Nc1c2c(nc3c1CCC3)CCCC2 [Verbindung 40, 9-Amino-2,3,5,6,7,8-hexahydro-1 H-cyclopenta(b)chinolinhydrochloridhydrat, reference compound]
- Acetylcholin 1.10^-6 (Mol): Dauer, Min. (Uterus der Ratte; Konzentration 1.10^-4 Mol): 30±0.9 Min.
- Acetylcholin 1.10^-6 (Mol): Dauer, Min. (Uterus der Ratte; Konzentration 1.10^-5 Mol): 30±0.5 Min.
- Serotonin 1.10^-6 (Mol): Dauer, Min. (Uterus der Ratte; Konzentration 1.10^-4 Mol): 30±0.5 Min.
- Serotonin 1.10^-6 (Mol): Dauer, Min. (Uterus der Ratte; Konzentration 1.10^-5 Mol): 25±0.4 Min.
- Verdrängung des 3H-Propyl-2-aminobenzylats im Gehirn des Kaninchens (M-cholinrezeptoren) (M-cholinrezeptoren; [7]): 10
- Verdrängung des 3H-Propyl-2-aminobenzylats im Gehirn des Kaninchens (M-cholinrezeptoren) (M-cholinrezeptoren; [8]): 0
- IC50 [1]: 450 µM
- Einfluß auf das Gedächtnis: Zahl der Tiere in %, bei denen die Skopolaminwirkung aufgehoben wurde [2]: 60%
- IC50 [3]: 200 µM
- Adrenalin 1.10^-6: Dauer, Min. (Samenleiter der Ratte; Konzentration 1.10^-4 Mol): 28±0.8 Min.
- Adrenalin 1.10^-6: Dauer, Min. (Samenleiter der Ratte; Konzentration 1.10^-5 Mol): 25±0.6 Min.
- LD50 [4]: 44 mg/kg
- Verdrängung des 3H-Clonidins in der Hirnrinde des Kaninchens (α2-Adrenorezeptoren) (α2-Adrenorezeptoren; [7]): 10
- Verdrängung des 3H-Clonidins in der Hirnrinde des Kaninchens (α2-Adrenorezeptoren) (α2-Adrenorezeptoren; [8]): 0
- α2-adrenoblockierende Wirkung (α2-Adrenorezeptoren; in words, from radioligand studies): fehlt jedoch praktisch
- Stimulierung der Nerven-Muskelübertragung, in % der Amplitude: EPP ([5]; EPP = Endplattenpotential): 55%
- Stimulierung der Nerven-Muskelübertragung, in % der Amplitude: minEPP ([5]; minEPP): 100%
- TD50 [6]: 23.2 mg/kg
- Verdrängung des 3H-Chinuklidins im Kaninchenherzen (M2-Cholinrezeptoren) (M2-Cholinrezeptoren; [7]): 0
- Verdrängung des 3H-Chinuklidins im Kaninchenherzen (M2-Cholinrezeptoren) (M2-Cholinrezeptoren; [8]): 0
